Publication PMC6537702, “Design, synthesis, molecular modelling, and biological evaluation of novel substituted pyrimidine derivatives as potential anticancer agents for hepatocellular carcinoma” (Journal of Enzyme Inhibition and Medicinal Chemistry, 2019)
Values after ≈ are worked out from the molar mass of the structure shown. Read-outs that look alike come from different tables or passages of the source.

Tests used:
[1] = Resazurin cell growth inhibition assay, normal fibroblast cells; format: cell-based; conditions: M ± SEM of three independent experiments, read-out: Cytotoxic activity IC50, Fibroblast
From the text: (§1) All compounds 2a-e, 3a-d, and PPAD’s 4a-t were subjected to a screening system for evaluation of their anticancer activity against cell line of human cancer, namely liver (HepG2 and Huh-7) cancer and normal fibroblast cells obtained from the German Cancer Research Center (DKFZ), following the Resazurin Cell Growth Inhibition Assay[45] in comparison to the standard treatment using DOX (see Supplementary).
(§2) Cell culture and treatment
(§3) All reagents were handled in a sterile fume hood. DMEM medium, and fetal bovine serum (FBS) were purchased from Gibco;phosphate-buffered saline pH 7.4 (PBS) and trypsin-EDTA were obtained from Sigmae Aldrich. Alamar Blue or Resazurin (Promega,Mannheim, Germany) reduction assay was used to assess the cytotoxicity of the studied samples. The growth medium (DMEMmedium with 10% FBS, 10 0 U/mL penicillin, and 10 0 mg/L streptomycin), and alamar blue were stored at 48 C, while trypsineEDTA and FBS were stored frozen at 208C and thawed before use; PBS was stored at room temperature. The Hep-G2, Huh-7 and normal fibroblast cells were obtained from the German Cancer Research Center (DKFZ).Cells were cultured in 50 cm2 culture flask s (Corning) using DMEM medium supplemented with 10% FBS, penicillin (10 0 IU/mL), and streptomycin ([…]). The culture was maintained at 37 C atmosphere of 5% CO2 and 95% relative humidity. The cells were transferred to a new fl ask every 2 days and treated with trypsineEDTA to detach them from the flask . Cells were counted under a microscope using a hemacytometer (Hausser Scientific).Cell solutions were diluted with growth medium to a concentration of 1 *10^5 cells/mL and transferred to a 96-well plate, and treated with gradient concentrations of test compounds.
(§4) Resazurin cell growth inhibition assay
(§5) Alamar Blue or Resazurin (Promega, Mannheim, Germany) reduction assay was used to assess the cytotoxicity of the studied samples. The assay tests cellular viability and mitochondrial function. Briefly y, adherent cells were grown in tissue culture flask s, and then harvested by treating the fl asks with 0.025% trypsin and0.25 mM EDTA for 5 min. Once detached, cells were washed, counted and an aliquot (5 * 103cells) was placed in each well of a96-well cell culture plate in a total volume of […]. Cells were allowed to attach overnight and then treated with samples. The final concentration of samples ranged from 0 to 10 0 mM. After 4 8 h,[…] Resazurin 0.01% w/v solution was added to each well and the plates were incubated at 37C for 1 -2 h. Fluorescence was measured on an automated 96-well Infinite M2000 ProTM plate reader (Tecan, Crailsheim, Germany) using an excit ation wave-length of 54 4 nm and an emission wavelength of 590 nm. Doxorubicin was used as positive control. Each assay was done at least three times, with two replicates each. The viability was compared based on a comparison with untreated cells. IC50(on cancer cells) were the concentration of sample required to inhibit 50% of the cell proliferation and were calculated from a calibration curve by a linear regression using Microsoft Excel

Huh-7 cell line = assay: Resazurin cell growth inhibition assay, Huh-7; format: cell-based, human; conditions: for IC50: Homo sapiens
From the text: as §1, §2, §3, §4, §5

HepG2 cell line = assay: Resazurin cell growth inhibition assay, HepG2; format: cell-based, human; conditions: for IC50: Homo sapiens
From the text: as §1, §2, §3, §4, §5

[2] = Huh-7, 48 h, resazurin assay, 48 h, M ± SEM of three independent experiments, read-out: Cytotoxic activity IC50, Huh-7 cell line
[3] = HepG2, 48 h, resazurin assay, 48 h, M ± SEM of three independent experiments, read-out: Cytotoxic activity IC50, HepG2 cell line
[4] = HepG2, converted from μg/mL, read-out: IC50 against HepG2 cell line, equivalent in μM
[5] = resazurin assay, 48 h, M ± SEM of three independent experiments

SMILES | melting point [°C] | IC50 (HepG2 cell line; [4]) [µM] | IC50 (Huh-7 cell line; Huh-7, converted from μg/mL, read-out: IC50 against Huh-7 cell line, equivalent in μM) [µM] | IC50 at 48 h [1] [µg/mL] | IC50 (Huh-7 cell line; [2]) [µg/mL] | IC50 (HepG2 cell line; [3]) [µg/mL] | Cytotoxic activity IC50, HepG2 cell line (HepG2 cell line; [5]) [µg/mL] | Cytotoxic activity IC50, Huh-7 cell line (Huh-7 cell line; [5]) [µg/mL]
N#Cc1c(-c2ccccc2)nc(NN)[nH]c1=O [Compound 2a] |  |  |  | 40 ± 1.24 (≈ 176 µM) | 21.7 ± 1.18 | 20.8 ± 1.6 |  | 
N#Cc1c(-c2ccc(F)cc2)nc(NN)[nH]c1=O [Compound 2b] |  |  |  | 40.6 ± 2.45 (≈ 165 µM) | 21.6 ± 2.19 | 22.2 ± 2.2 |  | 
N#Cc1c(-c2c[nH]c3ccccc23)nc(NN)[nH]c1=O [Compound 2c] |  |  |  | 40.2 ± 2.13 (≈ 151 µM) | 21.3 ± 2.37 | 20.2 ± 1.88 |  | 
COc1cc(-c2nc(NN)[nH]c(=O)c2C#N)cc(OC)c1OC [Compound 2d] |  |  |  | 40.1 ± 1.37 (≈ 126 µM) | 21.8 ± 3.18 | 20.6 ± 2.14 |  | 
CN(C)c1ccc(-c2nc(NN)[nH]c(=O)c2C#N)cc1 [Compound 2e, 4-[4-(Dimethylamino)phenyl]-2-hydrazino-6-oxo-1,6-dihydropyrimidine-5-carbonitrile] | 214 to 216 |  |  | 40.4 ± 1.89 (≈ 150 µM) | 21 ± 4.12 | 20.1 ± 3 |  | 
O=C(/C=C/c1ccc(F)cc1)c1c2ccccc2cc2ccccc12 [Compound 3a] |  |  |  | 40.6 ± 2.48 (≈ 124 µM) | 21.8 ± 1.24 | 22.2 ± 2.45 |  | 
CN(C)c1ccc(/C=C/C(=O)c2c3ccccc3cc3ccccc23)cc1 [Compound 3b] |  |  |  | 40.7 ± 2.34 (≈ 116 µM) | 21 ± 1.12 | 21.4 ± 2.76 |  | 
COc1cc(/C=C/C(=O)c2c3ccccc3cc3ccccc23)cc(OC)c1OC [Compound 3c] |  |  |  | 40.8 ± 4.51 (≈ 102 µM) | 21.5 ± 4.13 | 21.5 ± 2.54 |  | 
O=C(/C=C/c1c[nH]c2ccccc12)c1c2ccccc2cc2ccccc12 [Compound 3d, (2E)-1–(9-anthryl)-3-(1H-indol-3-yl)prop-2-en-1-one] | 170 to 172 |  |  | 40.8 ± 4.72 (≈ 117 µM) | 22.6 ± 3.3 | 22.5 ± 2.8 |  | 
COc1cc(-c2nc(N3N=C(c4c5ccccc5cc5ccccc45)CC3c3c[nH]c4ccccc34)[nH]c(=O)c2C#N)cc(OC)c1OC (centres unmarked) [Compound 4p, 2-[3-Anthracene-9-yl-5-(1H-indol-3-yl)-4,5-dihydro-pyrazol-1-yl]-6-oxo-4–(3,4,5-trimethoxy-phenyl)-1,6-dihydro-pyrimidine-5-carbonitrile] |  |  |  | 18.2 ± 4.02 (≈ 28.2 µM) | 8.14 ± 1.65 | 11.2 ± 1.2 |  | 
COc1cccc2c1C(=O)c1c(O)c3c(c(O)c1C2=O)C[C@@](O)(C(=O)CO)C[C@@H]3O[C@H]1C[C@H](N)[C@H](O)[C@H](C)O1 [Doxorubicin, reference compound] |  | 10.1 |  | 24.1 ± 3.53 (≈ 44.4 µM) | 5.43 | 5.43 ± 0.24 |  | 6.40 ± 0.43

More lines, main results first:

melting point [°C] | IC50 (HepG2 cell line; [4]) [µM] | IC50 (Huh-7 cell line; Huh-7, converted from μg/mL, read-out: IC50 against Huh-7 cell line, equivalent in μM) [µM] | SMILES | IC50 at 48 h [1] [µg/mL] | IC50 (Huh-7 cell line; [2]) [µg/mL] | IC50 (HepG2 cell line; [3]) [µg/mL] | Cytotoxic activity IC50, HepG2 cell line (HepG2 cell line; [5]) [µg/mL] | Cytotoxic activity IC50, Huh-7 cell line (Huh-7 cell line; [5]) [µg/mL]
150 to 151 |  |  | N#Cc1c(-c2ccccc2)nc(N2N=C(c3c4ccccc4cc4ccccc34)CC2c2ccc(F)cc2)[nH]c1=O (centres unmarked) [Compound 4a, 2-[3-Anthracene-9-yl-5–(4-fluoro-phenyl)-4,5-dihydro-pyrazol-1-yl]-6-oxo-4-phenyl-1,6-dihydro-pyrimidine-5-carbonitrile] | 32.3 ± 5.22 (≈ 60.3 µM) | 16.8 ± 3.45 | 11.3 ± 2.11 |  | 
120 to 122 |  |  | CN(C)c1ccc(C2CC(c3c4ccccc4cc4ccccc34)=NN2c2nc(-c3ccccc3)c(C#N)c(=O)[nH]2)cc1 (centres unmarked) [Compound 4b, 2-[3-Anthracene-9-yl-5–(4-dimethylamino-phenyl)-4,5-dihydro-pyrazol-1-yl]-6-oxo-4-phenyl-1,6-dihydro-pyrimidine-5-carbonitrile] | 33 ± 6.51 (≈ 58.9 µM) | 10.9 ± 2.14 | 15.3 ± 4.21 |  | 
110 to 112 |  |  | COc1cc(C2CC(c3c4ccccc4cc4ccccc34)=NN2c2nc(-c3ccccc3)c(C#N)c(=O)[nH]2)cc(OC)c1OC (centres unmarked) [Compound 4c, 2-[3-Anthracene-9-yl-5–(3,4,5-trimethoxy-phenyl)-4,5-dihydro-pyrazol-1-yl]-6-oxo-4-phenyl-1,6-dihydro-pyrimidine-5-carbonitrile] | 29.3 ± 3.51 (≈ 48.2 µM) | 11.3 ± 1.09 | 15.3 ± 4.22 |  | 
135 to 137 |  |  | N#Cc1c(-c2ccccc2)nc(N2N=C(c3c4ccccc4cc4ccccc34)CC2c2c[nH]c3ccccc23)[nH]c1=O (centres unmarked) [Compound 4d, 2-[3-Anthracene-9-yl-5-(1H-indol-3-yl)-4,5-dihydro-pyrazol-1-yl]-6-oxo-4-phenyl-1,6-dihydro-pyrimidine-5-carbonitrile] | 21.5 ± 4.07 (≈ 38.6 µM) | 8.42 ± 1.04 | 17.2 ± 4.04 |  | 
 | 7.2 |  | CN(C)c1ccc(C2CC(c3c4ccccc4cc4ccccc34)=NN2c2nc(-c3ccc(F)cc3)c(C#N)c(=O)[nH]2)cc1 (centres unmarked) [Compound 4f, 2-[3-Anthracene-9-yl-5–(4-dimethylamino-phenyl)-4,5-dihydro-pyrazol-1-yl]-4–(4-fluoro-phenyl)-6-oxo-1,6-dihydro-pyrimidine-5-carbonitrile] | 33.1 ± 6.52 (≈ 57.3 µM) | 8.45 ± 0.75 | 4.2 | 4.22 ± 0.94 | 
 |  | 7.6 | COc1cc(C2CC(c3c4ccccc4cc4ccccc34)=NN2c2nc(-c3ccc(F)cc3)c(C#N)c(=O)[nH]2)cc(OC)c1OC (centres unmarked) [Compound 4g, 2-[3-Anthracene-9-yl-5–(3,4,5-trimethoxy-phenyl)-4,5-dihydro-pyrazol-1-yl]-4–(4-fluoro-phenyl)-6-oxo-1,6-dihydro-pyrimidine-5-carbonitrile] | 25.3 ± 4.87 (≈ 40.5 µM) | 4.78 ± 0.24 | 7.22 ± 1.85 |  | 
143 to 145 |  |  | N#Cc1c(-c2ccc(F)cc2)nc(N2N=C(c3c4ccccc4cc4ccccc34)CC2c2c[nH]c3ccccc23)[nH]c1=O (centres unmarked) [Compound 4h, 2-[3-Anthracene-9-yl-5-(1H-indol-3-yl)-4,5-dihydro-pyrazol-1-yl]-4–(4-fluoro-phenyl)-6-oxo-1,6-dihydro-pyrimidine-5-carbonitrile] | 23.5 ± 4.21 (≈ 40.9 µM) | 9.77 ± 1.48 | 7.45 ± 1.11 |  | 
240 to 242 |  |  | CN(C)c1ccc(C2CC(c3c4ccccc4cc4ccccc34)=NN2c2nc(-c3c[nH]c4ccccc34)c(C#N)c(=O)[nH]2)cc1 (centres unmarked) [Compound 4j, 2-[3-Anthracene-9-yl-5–(4-dimethylamino-phenyl)-4,5-dihydro-pyrazol-1-yl]-4-(1H-indol-3-yl)-6-oxo-1,6-dihydro-pyrimidine-5-carbonitrile] | 34.1 ± 5.17 (≈ 56.9 µM) | 13.2 ± 3.05 | 12.2 ± 2.53 |  | 
228 to 230 |  |  | COc1cc(C2CC(c3c4ccccc4cc4ccccc34)=NN2c2nc(-c3c[nH]c4ccccc34)c(C#N)c(=O)[nH]2)cc(OC)c1OC (centres unmarked) [Compound 4k, 2-[3-Anthracene-9-yl-5–(3,4,5-trimethoxy-phenyl)-4,5-dihydro-pyrazol-1-yl]-4-(1H-indol-3-yl)-6-oxo-1,6-dihydro-pyrimidine-5-carbonitrile] | 27 ± 4.12 (≈ 41.8 µM) | 13.5 ± 2.32 | 14.1 ± 3.01 |  | 
